According to PMC12434519:
Read-outs that look alike come from different tables or passages of the source.

Key:
[1] = SAH counterscreen inhibition (counterscreen of the MTase-Glo luminescence readout); details: for SAH counterscreen inhibition: Maximum response / IC50: LUM % inhibition; for SAH counterscreen inhibition: Hill slope: fit of concentration-response curve; for IC50: read-out: SAH counterscreen inhibition: IC50
[2] = molecular target: ZIKV NS5 (Zika virus, UniProt Q32ZE1); assay: Biochemical activity assay for ZIKV NS5 MTase (MTase-Glo); details: for Emax: 0.75 h, read-out: ZIKV NS5 inhibition: Maximum measured; for ZIKV NS5 inhibition: Hill slope: fit of concentration-response curve
Procedure: final concentration, lab stock) during dialysis at 4 °C overnight against a buffer containing 50 mM Tris-HCl, pH 7.5, 20 mM imidazole, 500 mM NaCl, and 1 mM dithiothreitol (DTT). To remove the His6-SUMO tag, the protein sample was mixed with cOmplete His-Tag purification resin (Roche), incubated for 2 h at 4 °C, and loaded onto a gravity flow column. Since the His6-SUMO tag bound to the column material, the flow-through was collected containing untagged target protein. The target protein was further purified by a Superdex200 10/300 gel filtration column (GE Healthcare) in buffer (20 mM Tris-HCl, pH 7.5, 500 mM NaCl, 1 mM DTT). Fractions were analyzed by SDS-PAGE and Coomassie staining. Protein-containing fractions were pooled, flash-frozen in liquid nitrogen, and stored at -80 °C. […]
in 1X NSP14 reaction buffer (50 mM Tris-HCl, pH 7.5, 6 mM KCl, 1.25 mM MgCl2, 1 mM DTT, and 0.01% Tween-20) in a total reaction volume of 16 µl in absence or presence of increasing inhibitor compound concentrations for 45 min at 37 °C. SAH production was monitored using the bioluminescence-based MTase-Glo™ Methyltransferase Assay kit (Promega) following manufacturer’s instructions. The luminescence signal of each reaction was recorded in relative light units (RLUs) using a Synergy Neo plate reader (BioTek, Winooski, VT). […] IC50 values (mean from at least 3 independent experiments) were calculated using the GraphPad Prism software (Version 10.1.1) and a four-parameter logistic regression.
Biochemical activity assays for the human RNMT-RAM complex and ZIKV NS5 MTases Activity assays were performed in 1x NSP14 reaction buffer. For hRNMT-RAM, we used 15 nM enzyme, 2.5 µM GpppG and 2 µM SAM. For ZIKV NS5, we used 25 nM enzyme, 3 µM […]
Gppp[…]3, and 5 µM SAM. The enzymatic reaction was initiated with the addition of the enzyme in assay buffer and incubated at RT or 37 °C for 45 min, respectively. SAH was detected using the MTase-Glo™ assay.
Differential scanning fluorimetry (DSF)

[3] = molecular target: human RNMT-RAM complex (Homo sapiens, UniProt O43148); assay: Biochemical activity assay for the human RNMT-RAM complex (MTase-Glo); details: for hRNMT-RAM inhibition: Hill slope: fit of concentration-response curve; for Emax: read-out: hRNMT-RAM inhibition: Maximum response
[4] = LUM % inhibition, read-out: hRNMT-RAM inhibition: IC50
[5] = selectivity assay, read-out: ZIKV NS5 inhibition IC50

Chain of human RNMT-RAM complex (O43148 whole entry): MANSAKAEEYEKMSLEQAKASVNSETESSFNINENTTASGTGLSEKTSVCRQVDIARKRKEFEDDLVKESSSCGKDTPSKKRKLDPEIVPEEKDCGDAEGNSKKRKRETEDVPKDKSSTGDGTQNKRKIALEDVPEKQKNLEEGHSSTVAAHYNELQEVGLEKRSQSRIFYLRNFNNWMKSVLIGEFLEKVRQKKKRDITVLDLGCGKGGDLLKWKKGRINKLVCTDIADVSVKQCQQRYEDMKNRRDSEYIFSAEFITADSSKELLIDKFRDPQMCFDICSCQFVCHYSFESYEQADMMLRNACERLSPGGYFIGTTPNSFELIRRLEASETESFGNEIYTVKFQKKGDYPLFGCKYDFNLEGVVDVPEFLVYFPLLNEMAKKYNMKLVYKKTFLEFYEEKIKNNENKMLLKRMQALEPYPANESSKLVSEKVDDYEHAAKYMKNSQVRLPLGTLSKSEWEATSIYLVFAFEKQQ
Chain of human RNMT-RAM complex (Q9BTL3 whole entry partner): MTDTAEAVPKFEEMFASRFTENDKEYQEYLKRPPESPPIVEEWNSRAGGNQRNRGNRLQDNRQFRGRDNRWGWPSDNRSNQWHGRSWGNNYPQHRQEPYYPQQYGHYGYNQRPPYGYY
Chain of ZIKV NS5 (Q32ZE1 2517-2781): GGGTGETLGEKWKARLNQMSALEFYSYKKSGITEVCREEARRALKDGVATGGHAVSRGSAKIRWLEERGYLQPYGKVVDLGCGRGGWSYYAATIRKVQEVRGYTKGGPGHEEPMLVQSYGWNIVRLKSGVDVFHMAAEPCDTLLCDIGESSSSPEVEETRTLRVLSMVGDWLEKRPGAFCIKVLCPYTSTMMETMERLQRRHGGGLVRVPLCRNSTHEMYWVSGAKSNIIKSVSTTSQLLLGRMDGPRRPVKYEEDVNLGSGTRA

Structure (SMILES)	SAH counterscreen inhibition: Maximum response [1] [%]	SAH counterscreen inhibition: Hill slope [1]	IC50 [1] [µM]	Emax ([2]; LUM % inhibition) [%]	IC50 ([2]; LUM % inhibition) [µM]	ZIKV NS5 inhibition: Hill slope [2]	IC50 [3, 4] [µM]	hRNMT-RAM inhibition: Hill slope [3]	Emax [3] [%]	IC50 [2, 5] [µM]	IC50 [3] [µM]	Emax ([3]; LUM % inhibition) [%]
Cc1cnc(C(=O)NCc2ccc(CNC(=O)c3ccc(O)c(C)c3)cc2)c(C)c1 [RU-0834201, CC1=CC(C)=C(C(=O)NCC2=CC=C(CNC(=O)C3=CC=C(O)C(C)=C3)C=C2)N=C1]	14.6	-59.4	> 125	12.1	> 250	0.157	> 250	35.3	6.56	–	–	–
Cc1ccc(C)c(C(=O)NCC2CCC3(CN(C(=O)c4cc(C)c(O)c(C)c4)C3)O2)c1C (stereo not drawn) [RU-0834178, CC1=CC(C(=O)N2CC3(C2)CCC(CNC(=O)C2=C(C)C=CC(C)=C2C)O3)=CC(C)=C1O]	18.2	-6.31	> 125	20.5	> 250	0.402	> 250	13.1	3.1	–	–	–
Cc1nccc(C(=O)NCC2CCC3(CN(C(=O)c4cc(C)c5[nH]ncc5c4)C3)O2)c1C (stereo not drawn) [RU-0834173, CC1=C2C(=CC(C(=O)N3CC4(C3)CCC(CNC(=O)C3=C(C)C(C)=NC=C3)O4)=C1)C=NN2]	12.6	-9.25	> 125	10.3	> 250	20.4	> 250	1.99	3.36	–	–	–
Cc1cccc(C(=O)NCC2CCC3(CN(C(=O)c4cc(C)c5[nH]ncc5c4)C3)O2)c1F (stereo not drawn) [RU-0834174, CC1=CC(C(=O)N2CC3(C2)CCC(CNC(=O)C2=CC=CC(C)=C2F)O3)=CC2=C1NN=C2]	16.2	-17	> 125	12.9	> 250	1.95	> 250	0.374	26.5	–	–	–
Cc1cnc(C(C)NC(=O)c2ccc(CNC(=O)c3ccc(O)c(C)c3)cn2)nc1 (stereo not drawn) [RU-0834184, CC1=CN=C(C(C)NC(=O)C2=NC=C(CNC(=O)C3=CC=C(O)C(C)=C3)C=C2)N=C1]	16.9	13.5	> 125	12.7	> 250	1.19	> 250	137	5.53	–	–	–
Cc1cc(C)c(C(=O)NCc2ccc(CNC(=O)c3ccc(O)c(C)c3)cc2)cn1 [RU-0834181, CC1=CC(C(=O)NCC2=CC=C(CNC(=O)C3=CN=C(C)C=C3C)C=C2)=CC=C1O]	12.2	63.6	> 125	14.9	> 250	0.143	> 250	0.346	20.8	–	–	–
Cc1nc(C)c(C(=O)NCc2ccc(CNC(=O)c3ccc(O)c(F)c3)cc2)nc1C [RU-0834080, CC1=NC(C)=C(C)N=C1C(=O)NCC1=CC=C(CNC(=O)C2=CC(F)=C(O)C=C2)C=C1]	16.2	-2.71	> 125	18.4	> 250	1.81	> 250	1.28	23.1	–	–	–
Cc1ccc(NC(=O)Cn2nnc3ccccc3c2=O)cc1S(=O)(=O)N1CCCCC1 [RU-0833928, S(=O)(=O)(N1CCCCC1)c1c(C)ccc(NC(=O)CN2N=Nc3c(cccc3)C2=O)c1]	21.6	-3.01	> 125	9.49	> 250	-7.54	> 250	0.501	8.18	–	–	–
CCn1nc(C)c(C(=O)NCCc2ccc(CNC(=O)c3ccc4[nH]ncc4c3)cc2)c1C [RU-0834081, CCN1N=C(C)C(C(=O)NCCC2=CC=C(CNC(=O)C3=CC4=C(C=C3)NN=C4)C=C2)=C1C]	11.2	6.42	> 125	15.9	> 250	4.21	> 250	0.243	15.2	–	–	–
COc1ccc(-c2ocnc2C(=O)Nc2ccc3oc(=O)n(CC(=O)N4CCCCC4)c3c2)cc1 [RU-0833661, COC1=CC=C(C2=C(C(=O)NC3=CC=C4OC(=O)N(CC(=O)N5CCCCC5)C4=C3)N=CO2)C=C1]	20.6	0.36	> 125	66.6	–	1.01	> 125	5.03	36.6	73.7	–	–
C[C@@H](NC(=O)c1ccc(CNC(=O)c2ccc3[nH]ncc3c2)cc1)c1cccc(O)c1 [RU-0834179, C[C@@H](NC(=O)C1=CC=C(CNC(=O)C2=CC=C3NN=CC3=C2)C=C1)C1=CC(O)=CC=C1]	14.4	11.5	> 125	12.5	> 250	1.12	> 250	0.0614	6.78	–	–	–
O=C(Cn1cccc(-c2nc(-c3ccccc3)no2)c1=O)Nc1ccc(F)cc1F [RU-0833868, Fc1c(NC(=O)CN2C=CC=C(c3nc(c4ccccc4)no3)C2=O)ccc(F)c1]	21.5	19.2	> 125	64.4	–	0.969	> 250	3.14	5.14	122	–	–
Nc1ncnc2c1ncn2C1OC(CC(N)CCC(N)C(=O)O)C(O)C1O (stereo not drawn) [RU-0425548]	8.34	7.74	> 62.5	109	0.21	0.774	–	0.881	–	–	0.00596	102
